Reference: publication PMC11173382, “In Vitro Investigations into the Potential Drug Interactions of Pseudoginsenoside DQ Mediated by Cytochrome P450 and Human Drug Transporters” (Molecules, 2024)

How the values were obtained:
[1] = biological target: T1, CYP2B6 (Homo sapiens, UniProt P20813); assay: CYP450 inhibition assay in human liver microsomes, CYP2B6; format: in vitro ADME; conditions: HLM 0.1 mg/mL; probe bupropion 80 µM; 10 min
T1 construct: tissue Corning 452117; host or cells: human liver microsomes
T1 sequence (P20813 1-491): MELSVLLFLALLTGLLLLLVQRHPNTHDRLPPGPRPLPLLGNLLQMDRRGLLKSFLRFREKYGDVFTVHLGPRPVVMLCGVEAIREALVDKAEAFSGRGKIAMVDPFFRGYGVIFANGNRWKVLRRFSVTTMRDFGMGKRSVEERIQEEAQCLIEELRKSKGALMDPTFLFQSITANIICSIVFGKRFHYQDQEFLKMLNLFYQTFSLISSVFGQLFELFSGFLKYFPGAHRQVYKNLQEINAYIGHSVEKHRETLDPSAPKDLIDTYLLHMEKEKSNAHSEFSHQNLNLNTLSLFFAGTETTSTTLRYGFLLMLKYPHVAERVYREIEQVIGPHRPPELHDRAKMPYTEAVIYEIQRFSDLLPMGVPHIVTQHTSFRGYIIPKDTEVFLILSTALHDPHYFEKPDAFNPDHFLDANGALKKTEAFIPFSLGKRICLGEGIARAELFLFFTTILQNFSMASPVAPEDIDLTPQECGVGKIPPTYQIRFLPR
Procedure: To evaluate the reliability and reproducibility of the CYP450 inhibition assay, we measured the inhibitory effects of selected positive control inhibitors of each CYP450 enzyme in human liver microsomes (HLM, Table 1, Figure 2). The potency of inhibition was estimated by observing the alteration in concentration of metabolites of CYP450 substrates (Table 1).
Reagents preparation. […] The stock solution of PDQ (10 mM) was prepared with methanol and further diluted to the range of 3 µM to 3 mM with methanol to ensure that the solvent of different PDQ samples contained the same amount (1%) of methanol.
The stock solutions of the positive control inhibitors and the probe substrates of CYP450 enzymes were prepared in methanol.
CYP450 inhibition assay. […] The assay was conducted in polypropylene 96-well plates (2.2 mL/well, Apricot Designs Inc., Covina, CA, USA).
The total volume of the reaction is 200 μL. […] The substrates and analytes were analyzed by LC-MS/MS (API4000, Applied Biosystems, Singapore; HPLC, Shimadzu, Japan). […]
Data analysis. […] The IC50 was determined by fitting the dependence of the relative remaining activity (y = Vi/V0) to the following three-parameter equation (Equation (1)). […]

[2] = biological target: T2, hOATP1B1 (Homo sapiens, UniProt Q9Y6L6); assay: Substrates uptake assay, HEK293A-OATP1B1 cells (3H-ES); format: in vitro ADME; conditions: HEK293A-OATP1B1; 3H-ES 0.1 µM; 2 min
T2 sequence (Q9Y6L6 1-691): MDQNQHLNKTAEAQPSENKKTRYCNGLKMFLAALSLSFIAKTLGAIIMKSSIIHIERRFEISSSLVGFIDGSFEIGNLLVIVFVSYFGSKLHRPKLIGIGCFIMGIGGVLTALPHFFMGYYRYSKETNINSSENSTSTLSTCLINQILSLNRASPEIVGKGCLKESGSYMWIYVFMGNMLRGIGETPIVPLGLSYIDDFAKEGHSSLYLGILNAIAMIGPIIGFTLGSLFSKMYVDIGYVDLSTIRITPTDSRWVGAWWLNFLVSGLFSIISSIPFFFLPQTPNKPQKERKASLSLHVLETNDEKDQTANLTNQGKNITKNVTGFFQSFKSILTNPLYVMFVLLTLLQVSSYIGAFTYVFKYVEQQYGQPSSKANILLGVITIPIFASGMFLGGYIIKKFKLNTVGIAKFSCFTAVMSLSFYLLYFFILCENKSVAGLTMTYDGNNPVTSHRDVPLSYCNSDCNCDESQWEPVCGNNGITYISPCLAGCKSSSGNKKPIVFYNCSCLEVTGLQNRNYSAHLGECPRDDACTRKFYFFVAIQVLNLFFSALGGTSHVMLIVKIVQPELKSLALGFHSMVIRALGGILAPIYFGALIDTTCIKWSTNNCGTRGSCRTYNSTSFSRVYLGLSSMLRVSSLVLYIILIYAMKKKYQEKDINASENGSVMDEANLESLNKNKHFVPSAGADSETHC

[3] = cited from earlier work

CC(C)(O)[C@@H]1CC[C@@](C)([C@H]2CC[C@]3(C)[C@@H]2[C@H](O)C[C@@H]2[C@@]4(C)CC[C@H](O)C(C)(C)[C@@H]4CC[C@]23C)O1 [PDQ, (20S,24S)-dammar-20,24-epoxy-3β, 12β, 25-triol]
IC50 [1]: 45.3 µM
IC50 [2]: 13.1 µM
bioavailability ([3]; PDQ in gattate pills): 62.13%
biological half-time (t1/2) ([3]; rat plasma): 5.97 ± 0.43 h
concentration at peak (Cmax) ([3]; rat plasma): 3265.12 ± 700.26 ng/mL
time to peak (Tmax) ([3]; rat plasma): 4.0 ± 0.0 h
Cmax ([3]; rats, effective oral dosage 15 mg/kg, no reference given, read-out: peak concentration (Cmax)): 6.5 µM
cumulative amount excreted through feces ([3]; rats, over 96 h): 55.39%
long-term accumulation in tissues ([3]; rats, single oral dose of 30.0 mg/kg): no long-term accumulation
